From article PMC10989010, “A panel of janus kinase inhibitors identified with anti-inflammatory effects protect mice from lethal influenza virus infection” (Antimicrobial Agents and Chemotherapy, 2024)
Structures can show the parent of a compound that is named as a salt.

Tests used:
[1] = stated as reason for selection; no test or reference printed; cited from earlier work
PR8 virus [2] = experiment: Viral titers in BALF by TCID50 assay using MDCK cells; assay type: in vivo; details: 300 TCID50; 20 mg/kg/d; day 7 p.i.; treated versus untreated mice
Description: Madin-Darby canine kidney (MDCK) cells (ATCC CCL-34™) were maintained in Dulbecco’s modified Eagle’s medium (DMEM, Gibco, Carlsbad, CA) supplemented with 10% fetal bovine serum (Gibco), 100 U/mL penicillin, and 100 µg/mL streptomycin. Human monocyte cell line U937 (CRL-1593.2) was cultured in RPMI 1640 medium supplemented with 10% fetal bovine serum (Gibco), 100 U/mL penicillin, and 100 µg/mL streptomycin. All these cells were maintained at 37℃ in a 5% CO2 incubator. […] The viral titers were measured using 50% tissue culture infective dose (TCID50) assay in MDCK cells. The 10-day-old embryonated chicken eggs were obtained from Guangdong Wens Dahuanong Biotechnology Co., Ltd (Guangdong, China). Six-week-old BALB/c mice were purchased from Guangdong Medical Laboratory Animal Center (GDMLAC, Guangdong, China) and housed under specific pathogen-free conditions.

PR8 virus [3] = experiment: Neutralization assay of mouse sera; assay type: in vivo, BALB/c mice; details: for neutralizing antibody titer: 50 TCID50 PR8, 20 mg/kg
Description: The neutralization assay was performed to determine the neutralizing titers of sera obtained from mice infected with influenza virus. The procedure involved diluting the sera and subsequently heat-inactivating it at 56℃ for 30 minutes, followed by its combination with 100 TCID50 PR8 virus and incubation at 37℃ for 1 hour. The mixture was added to pre-seeded MDCK cells and incubated at 37℃ for 1 hour. Subsequently, the medium was replaced with fresh DMEM and further cultured at 37℃ for 24 hours. Virus production in the supernatant was quantified by assessing virus neuraminidase activity on a black opaque 96-well plate (PerkinElmer, 6005270) using a substrate of 20 µM 2'-(4-methylumbelliferyl)-α-D-N-acetylneuraminic acid (MUNANA, Sigma, M8639) dissolved in MES solution [33 mmol/L 2-(N-morpholino) ethanesulfonic acid and 4 mmol/L CaCl2, pH = 6.5]. The reaction mixture was then incubated at 37℃ for an additional period of 2 hours. The reaction was terminated by the addition of a stop solution (0.14 mol/L NaOH in 83% ethanol). Fluorescence intensity was measured using multimode plate readers (Varioskan Lux, Thermoscientific, USA) with an excitation wavelength of 355 nm and an emission wavelength of 485 nm. The relative virus production was determined based on the fluorescence intensity, which correlated to the cleavage of MUNANA by viral neuraminidase. The serum neutralization titer, representing the dilution fold of serum required to achieve 50% virus neutralization, was determined using Graphpad software ([47]).

[4] = test system: influenza virus-specific IgG; experiment: Influenza virus-specific IgG in mouse serum (ELISA); assay type: in vivo, BALB/c mice; details: 50 TCID50 PR8, 20 mg/kg twice daily for 5 days from 3 dpi, versus untreated
Description: The PR8 virus was purified and inactivated using β-Propiolactone (CAS: 57–57-8, MCE) at a 1:3,000 (vol/vol) ratio. The inactivated PR8 virus (2 µg in each well) was then coated onto a 96-well ELISA plate (Corning, USA) and left overnight at 4℃. Afterward, the plate was washed three times and blocked with 5% skimmed milk for 1 hour at 37℃. The plate was washed again three times and then incubated with 100 µL of serial diluted sera at 37 ℃ for 2 hours. Next, the plate was washed three times and incubated with 100 µL of 1,000-fold diluted (horseradish peroxidase) HRP-conjugated affinipure goat ant-mouse IgG (H + L; SA00001-1, Proteintech) at 37℃ for 1 hour. After washing the plate four times, 100 µL of TMB (3, 3', 5, 5'-tetramethylbenzidine) substrate was added to each well until the solutions turned blue, and then 50 µL of 2M H2SO4 was added to stop the reaction. Finally, the absorbance was read at OD450 nm using the Varioskan LUX multimode microplate reader (Thermo Scientific, Waltham, MA, USA) ([47]).

[5] = test system: neutrophils and macrophages; experiment: Flow cytometry of BALF cells of infected mice; assay type: in vivo; details: 20 mg/kg/d, day 7 p.i.
Description: The mouse was euthanized and affixed onto a surgical plate, followed by disinfection of the neck using 70% ethanol. An incision was made on the neck skin using scissors to expose the trachea. Subsequently, a 0.2 cm incision was created on the trachea with surgical scissors, and a gavage needle was carefully inserted into it. The trachea was tied around the needle using cotton thread to secure the needle in place. Then, sterile PBS solution loaded in a 1 mL syringe was gently injected into the lung. The thorax of the mouse was massaged to facilitate even distribution of the solution before careful aspiration. Following the removal of the syringe from the needle, lavage fluid obtained from this process was transferred to an ice-cooled 1.5 mL tube for further processing or stored at −80℃ for subsequent analysis. Finally, resuspension and staining of cell pellet obtained after centrifugation of lavage fluid for 10 minutes at 1,000 × g and 4℃ were performed for subsequent analysis using flow cytometry ([45]).
BALF samples were washed with FACS (fluorescence-activated cell sorting) buffer (2% BSA in PBS), followed by red blood cell lysis using Red Cell Lysis Buffer (Tiangen, Beijing, China). For the surface staining, cells were stained with the following fluorochrome-labeled antibodies (Biolegend, San Diego, USA): PE-Cy7-conjugated Ly6C (clone HK1.4, dilution 1:200), PE-conjugated CD11b (clone M1/70, dilution 1: 200), APC-conjugated Ly6G (clone 1A8, dilution 1: 200), and FITC-conjugated CD11c (clone N418, dilution 1: 100). Cells were washed with PBS twice and counterstained with 7AAD (Biolegend, San Diego, USA) to differentiate apoptotic and dead cells, then analyzed using a BD FACSVerse Cell Analyzer (BD, New Jersey, USA).

U937 cells = experiment: Cytotoxicity assay (CellTiter-Glo); assay type: cell-based, human; details: U937 cells; CellTiter-Glo; mean of three independent experiments
Description: The compound cytotoxicity was determined by CellTiter-Glo Assay (Promega, Madison, WI, USA). After adding 15 µL of CellTiter-Glo reagent to each well, plates were incubated at room temperature for 15 minutes with shaking. The luminescence intensity was determined by a multimode plate reader (Wallac Envision, PerkinElmer, MA, USA).

MCP1 = experiment: cells; assay type: cell-based, human; details: Homo sapiens, U-937, 72 h, read-out: IC50 MCP1
IP-10 = experiment: cells; assay type: cell-based, human; details: Homo sapiens, U-937, 72 h, read-out: IC50 IP-10

## CNS(=O)(=O)C[C@H]1CC[C@H](N(C)c2ncnc3[nH]ccc23)CC1 [Oclacitinib maleate]
[1]
  water solubility: high water solubility
PR8 virus [2]
  viral titers in the BALF: no significant differences
PR8 virus [3]; 14 dpi
  change in neutralization antibody titers compared to untreated mice: slight decrease
  neutralizing antibody titer: 690
PR8 virus [3]; 21 dpi
  change in neutralization antibody titers compared to untreated mice: no difference
  neutralizing antibody titer: 1,087
PR8 virus [3]; 7 dpi
  neutralizing antibody titer: 177
[4]; 7 dpi
  serum influenza virus-specific IgG production: significantly suppressed
[4]; 14 and 21 dpi
  serum influenza virus-specific IgG production: slight suppression
[5]; BALF flow cytometry, versus placebo
  number of neutrophils and macrophages in the lungs: reduce the number of neutrophils and macrophages
[5]; Fig 4B, 300 TCID50
  Ly6G- (flow cytometry gate, BALF): 81.6
  Macrophage (flow cytometry gate, BALF): 8.05
  Neurophil (flow cytometry gate, BALF): 15.2
U937 cells
  CC50: 50000 nM
MCP1
  IC50: 190 nM
IP-10
  IC50: 180 nM
